Measurements from patent US12247106B2, “Onium-functionalized siloxanes” (Henkel AG & Co. KGaA, priority 2019, dated 2025).

Assays:
Experiment in all cases: Kirby-Bauer Test (Zone of Inhibition), agar diffusion
Type in all cases: cell-based
[1] = test system: Aspergillus brasiliensis (ATCC 16404)
Protocol: (§1) Kirby-Bauer Test (Zone of Inhibition):
(§2) The Kirby-Bauer Test is also known as Agar Diffusion Test and can be used for determination of antimicrobial activity in combination with diffusion properties. […] A suspension of the bacterial or fungal strain of interest is spread evenly over the face of a sterile agar plate. The antimicrobial test substrate (preferential liquid aggregation state) is applied to the center of the agar plate onto a small filter paper. The agar plate is incubated for a defined time at a temperature suitable for the test microorganisms. If the test substrate leaches from the filter paper into the agar and it further contains antimicrobial activity, a zone of inhibition is formed around the filter paper.

[2] = test system: Exophiala dermatitidis (isolate)
Protocol: as §1, §2

[3] = test system: Staphylococcus aureus (ATCC 6538)
Protocol: as §1, §2

[4] = dilution ratio 1:10, maximum 45 mm
[5] = dilution ratio 1:100, maximum 45 mm

Compound: CCCCn1ccnc1 [1-Butyl-1H-imidazole]
- Zone of Inhibition ([1]; undiluted, maximum 45 mm): 5.0 mm
- Zone of Inhibition ([2]; undiluted, maximum 45 mm): 15.0 mm
- Zone of Inhibition ([3]; undiluted, maximum 45 mm): 11.0 mm

Compound: c1ccncc1 [Pyridine]
- Zone of Inhibition [1, 4]: 0.0 mm
- Zone of Inhibition [1, 5]: 0.0 mm
- Zone of Inhibition ([1]; undiluted, maximum 45 mm): 0.0 mm
- Zone of Inhibition [2, 4]: 0.0 mm
- Zone of Inhibition [2, 5]: 0.0 mm
- Zone of Inhibition ([2]; undiluted, maximum 45 mm): 1.0 mm
- Zone of Inhibition [3, 4]: 0.0 mm
- Zone of Inhibition [3, 5]: 0.0 mm
- Zone of Inhibition ([3]; undiluted, maximum 45 mm): 1.0 mm

Compound: Cn1ccnc1 [1-methyl-1H-imidazole]
- Zone of Inhibition [1, 4]: 0.0 mm
- Zone of Inhibition [1, 5]: 0.0 mm
- Zone of Inhibition ([1]; undiluted, maximum 45 mm): 3.5 mm
- Zone of Inhibition [2, 4]: 0.0 mm
- Zone of Inhibition [2, 5]: 0.0 mm
- Zone of Inhibition ([2]; undiluted, maximum 45 mm): 12.3 mm
- Zone of Inhibition [3, 4]: 0.0 mm
- Zone of Inhibition [3, 5]: 0.0 mm
- Zone of Inhibition ([3]; undiluted, maximum 45 mm): 6.5 mm
